Data: patent publication US11214540B2, “Compositions for treating neurodegenerative diseases” (COGNITION THERAPEUTICS, INC., priority 2017, dated 2022)

Columns and labels:
[1] = target: Sigma-1 receptors on Jurkat cell membranes (Homo sapiens (Human), UniProt Q99720); experiment: Competitive Radioligand Binding Assay 1, Sigma-1 binding ([3H](+)pentazocine displacement); conditions: sigma-1 receptor affinity; read-out: S1 Ki
Experimental: Certain compounds were tested for interaction with several receptors by blocking the binding or action of their agonists or antagonists. Some compounds were tested to see whether they interact directly with known cellular receptor or signaling proteins. Compounds can be tested for the ability to displace binding of known agonists or antagonists of a given human receptor that was overexpressed in cell lines or isolated from tissue. Compounds can also be tested for the ability to block downstream signaling induced by agonists or antagonists of a given human receptor. Compounds can be tested for action at 100 known receptors, and it is desirable that specific activity will occur at only a small subset of CNS-relevant receptors.
For Sigma-1 binding, various concentrations of test compounds from 100 μM to 1 nM were used to displace 8 nM [3H](+)pentazocine from endogenous receptors on Jurkat cell membranes (Ganapathy M E et al. 1991, J Pharmacol. Exp. Ther. 289:251-260). 10 μM Haloperidol was used to define non-specific binding. […] (Bowen W D, et al. 1993, Mol. Neuropharmcol 3:117-126). 10 μM Haloperidol was used to define non-specific binding. Reactions were terminated by rapid filtration through Whatman GF/C filters using a Brandel 12R cell harvester followed by two washes with ice-cold buffer. Radioactivity on the dried filter discs was measured using a liquid scintillation analyzer (Tri-Carb 2900TR; PerkinElmer Life and Analytical Sciences). The displacement curves were plotted and the Ki values of the test compounds for the receptor subtypes were determined using GraphPad Prism (GraphPad Software Inc., San Diego, Calif.). The percentage specific binding was determined by dividing the difference between total bound (disintegrations per minute) and nonspecific bound (disintegrations per minute) by the total bound (disintegrations per minute). […]

potassium channel hERG = potassium channel hERG (Homo sapiens (Human), UniProt Q12809); experiment: In vitro testing for hERG inhibition; format: biochemical; conditions: in vitro toxicity potassium channel hERG
Sequence of potassium channel hERG (Q12809 whole entry): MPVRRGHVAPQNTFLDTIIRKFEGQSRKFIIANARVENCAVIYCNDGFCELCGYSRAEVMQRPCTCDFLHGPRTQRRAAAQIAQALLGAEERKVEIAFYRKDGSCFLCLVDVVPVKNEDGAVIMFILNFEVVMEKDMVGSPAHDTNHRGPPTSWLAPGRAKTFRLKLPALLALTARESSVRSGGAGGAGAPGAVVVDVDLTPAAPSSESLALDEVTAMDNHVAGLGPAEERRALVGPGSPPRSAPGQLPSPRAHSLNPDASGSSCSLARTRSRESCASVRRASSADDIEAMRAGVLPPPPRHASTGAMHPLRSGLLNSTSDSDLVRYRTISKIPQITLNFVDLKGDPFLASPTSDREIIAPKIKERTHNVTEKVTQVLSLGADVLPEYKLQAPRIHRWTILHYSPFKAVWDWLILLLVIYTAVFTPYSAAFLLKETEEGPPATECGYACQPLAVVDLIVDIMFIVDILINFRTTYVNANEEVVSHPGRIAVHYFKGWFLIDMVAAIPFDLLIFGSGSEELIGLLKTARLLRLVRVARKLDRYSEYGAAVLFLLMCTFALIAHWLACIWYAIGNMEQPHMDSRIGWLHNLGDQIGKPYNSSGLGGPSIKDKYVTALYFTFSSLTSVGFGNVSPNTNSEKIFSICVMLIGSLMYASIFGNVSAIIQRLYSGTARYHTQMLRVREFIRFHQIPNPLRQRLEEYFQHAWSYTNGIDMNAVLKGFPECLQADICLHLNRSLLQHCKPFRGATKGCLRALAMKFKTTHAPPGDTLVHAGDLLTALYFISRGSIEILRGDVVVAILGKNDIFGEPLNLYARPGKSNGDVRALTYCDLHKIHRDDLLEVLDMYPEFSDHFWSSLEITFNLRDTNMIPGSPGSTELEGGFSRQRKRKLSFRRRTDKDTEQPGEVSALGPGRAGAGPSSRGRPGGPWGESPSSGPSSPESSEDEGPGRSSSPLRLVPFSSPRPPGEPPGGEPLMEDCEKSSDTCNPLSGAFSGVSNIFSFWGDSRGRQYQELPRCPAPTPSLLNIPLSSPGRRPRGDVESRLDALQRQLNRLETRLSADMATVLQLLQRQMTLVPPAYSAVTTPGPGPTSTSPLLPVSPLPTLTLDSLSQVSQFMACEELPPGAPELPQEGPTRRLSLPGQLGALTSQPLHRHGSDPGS
Experimental: In vitro testing for hERG inhibition was performed in a standard assay (See: Haverkamp W, Breithardt G, Carnm A J, Janse M J, Rosen M R, Antzelevitch C, Escande D, Franz M, Malik M, Moss A and Shah R. (2000) Eur Heat J 21 (15); 1216-31).

[2] = system: Abeta oligomer-induced membrane trafficking deficits in primary hippocampal neurons; experiment: Membrane Trafficking/Exocytosis (MTT) assay, Abeta oligomer effect on neurons; format: cell-based, rat; conditions: membrane trafficking; read-out: EC50 Abeta;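 also: compound potency for inhibiting the Abeta oligomer effect on exocytosis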
Experimental: Compounds according to any embodiment described herein, were tested for their ability to inhibit an amyloid beta effect on the cells. The compounds generally were able to inhibit the amyloid beta effect as measured by a membrane trafficking/exocytosis assay (MTT assay). The rationale for this assay was as follows:
The present exocytosis assay was adapted for use with mature primary neuronal cultures grown for 3 weeks in vitro. See WO 2011/106785, which is incorporated herein by reference in its entirety. Abeta oligomers cause a dose-dependent decrease in the amount of intracellular vesicles (puncta) filled with reduced purple formazan as measured via image processing using a Cellomics VTI automated microscopy system. […] Increasing the amount of Abeta oligomers eventually results in overt toxicity. Thus, the concentration of neuroactive Abeta oligomers used in the assay is much lower than that causing cell death. […] When configured in this manner, the assay is able to detect compounds that inhibit nonlethal effects of Abeta oligomer whether these compounds act via disruption of oligomers, inhibition of oligomer binding to neurons, or counteraction of signal transduction mechanisms of action initiated by oligomer binding.
Primary hippocampal neurons from E18 Sprague-Dawley rat embryos were plated at optimized concentrations in 384 well plates in NB media (Invitrogen). Neurons were maintained in cultures for 3 weeks, with twice weekly feeding of NB media with N2 supplement (Invitrogen).
A test compound was added to cells at concentrations ranging from 100 uM to 0.001 nM followed by addition of vehicle or Abeta oligomer preparations (3 μM total Abeta protein concentration), and incubated for 1 to 24 hr at 37° C. in 5% CO2. MTT reagent (3-(4,5-dimethylthizaol-2yl)-2,5diphenyl tetrazolium bromide) (Roche Molecular Biochemicals) was reconstituted in phosphate buffered saline to 5 mg/mL. 10 μL of MTT labeling reagent is added to each well and incubated at 37° C. for 1 h, then imaged. Exocytosis was assessed by automated microscopy and image processing to quantify the amount of endocytosed and exocytosed formazan.
Each assay plate was formatted so that compounds are tested with and without Abeta oligomer on each plate. This design eliminates toxic or metabolically active compounds early on in the screening cascade (at the level of the primary screen). Reduced formazan was first visible in intracellular vesicles. Eventual formazan exocytosis was accelerated via Abeta oligomers.
Human amyloid peptide 1-42 was obtained from a number of commercial vendors such as California Peptide, with lot-choice contingent upon quality control analysis. Quality controls of oligomer preparations consist of Westerns to determine oligomer size ranges and relative concentrations, and the MTT assay to confirm exocytosis acceleration without toxicity. Toxicity was monitored in each image-based assay via quantification of nuclear morphology visualized with the DNA binding blue dye DAPI (Invitrogen). Nuclei that are fragmented are considered to be in late stage apoptosis (Majno and Joris '95) and the test would be rejected. Peptide lots producing unusual peptide size ranges or significant toxicity at a standard 1.5 μM concentration on neurons would also be rejected.
Data handling and analysis were accomplished by Cellomics VTI image analysis software and STORE automated database software. Because of the low dynamic range and neuronal well-to-well variability after three weeks in culture, statistical comparisons are made via pairwise Tukey-Kramer analysis to determine the significance of the separation between compound+Abeta oligomers from Abeta alone, and between compound alone from vehicle. The ability of mature primary neurons to more closely approximate the electrophysiologically mediated signal transduction network of the adult brain justifies this screening strategy. […]

log P = format: physicochemical
Method in brief: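 Ratio of un-ionized compound concentrations between octanol and water, with aqueous pH set so the un-ionized form predominates. Value given as the log of the octanol/water ratio.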

[3] = target: Sigma-2 receptors on membranes from rat cerebral cortex (Rattus norvegicus (Rat), UniProt Q5U3Y7); experiment: Competitive Radioligand Binding Assay 1, Sigma-2 binding ([3H]DTG displacement with (+)pentazocine mask); conditions: sigma-2 receptor affinity; read-out: S2 Ki
Sequence of Sigma-2 receptors on membranes from rat cerebral cortex (Q5U3Y7 whole entry): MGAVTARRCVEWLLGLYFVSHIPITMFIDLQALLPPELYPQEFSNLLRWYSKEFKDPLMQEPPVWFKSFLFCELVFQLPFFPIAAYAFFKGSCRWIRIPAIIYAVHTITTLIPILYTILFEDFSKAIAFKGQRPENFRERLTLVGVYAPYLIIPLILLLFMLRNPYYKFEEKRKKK
Experimental: Using the same protocol, some compounds for which membrane trafficking data are given in Table 1 were tested for recognition of sigma-2 receptor. Certain compounds preferentially bind to the sigma-2 receptor.
For Sigma-1 binding, various concentrations of test compounds from 100 μM to 1 nM were used to displace 8 nM [3H](+)pentazocine from endogenous receptors on Jurkat cell membranes (Ganapathy M E et al. 1991, J Pharmacol. Exp. Ther. 289:251-260). 10 μM Haloperidol was used to define non-specific binding. […] (Bowen W D, et al. 1993, Mol. Neuropharmcol 3:117-126). 10 μM Haloperidol was used to define non-specific binding. Reactions were terminated by rapid filtration through Whatman GF/C filters using a Brandel 12R cell harvester followed by two washes with ice-cold buffer. Radioactivity on the dried filter discs was measured using a liquid scintillation analyzer (Tri-Carb 2900TR; PerkinElmer Life and Analytical Sciences). The displacement curves were plotted and the Ki values of the test compounds for the receptor subtypes were determined using GraphPad Prism (GraphPad Software Inc., San Diego, Calif.). The percentage specific binding was determined by dividing the difference between total bound (disintegrations per minute) and nonspecific bound (disintegrations per minute) by the total bound (disintegrations per minute).
Affinities for Sigma-1 and Sigma-2 receptors are typically obtained from published studies using cerebral tissue homogenates with [3H](+)pentazocine to measure displacement from Sigma-1 receptors and [3H] 1,3-Di-(2-tolyl)guanidine in the presence of 300 nM (+)pentazocine to measure displacement from Sigma-2 receptors.

Sequence of Sigma-1 receptors on Jurkat cell membranes (Q99720 whole entry): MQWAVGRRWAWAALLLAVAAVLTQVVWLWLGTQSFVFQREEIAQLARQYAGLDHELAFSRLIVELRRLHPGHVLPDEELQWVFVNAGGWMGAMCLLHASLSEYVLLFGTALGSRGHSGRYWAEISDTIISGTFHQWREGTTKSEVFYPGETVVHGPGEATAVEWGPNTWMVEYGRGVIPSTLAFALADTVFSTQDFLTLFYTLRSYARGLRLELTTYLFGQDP

Compound	Ki [1] [nM]	IC50 (potassium channel hERG) [nM]	EC50 [2] [µM]	log P (log P)	Ki [3] [nM]
CC(CC(C)(C)c1ccc(F)cc1)N1CCC(CO)CC1 (stereo not drawn) [Compound 19]	2.2	37000	< 0.25	3.57	6
CC(=O)N1CCN(C(C=C(C)C)CC(C)(C)c2ccc(C(F)(F)F)cc2)CC1 (stereo not drawn) [Compound 71]	62	17000		4.61	340
COCCCC1CCN(CCC(C)(C)c2ccc(C(F)(F)F)cc2)CC1 [Compound 4]	0.5	2200		5.35	0.8
CCC(C)(O)CCNC(C)CC(C)(C)c1ccc(C(F)(F)F)cc1 (stereo not drawn) [Compound 12]	1	970		4.13	2.7
CC(C)=CC(CC(C)(C)c1ccc(C(F)(F)F)cc1)N1CCC(CCOC2CCOC2)CC1 (stereo not drawn) [Compound 182]	160	2600		6.22	
CC(C)=CC(CCc1ccc(F)cc1)N1CCC(C2CCOCC2)CC1 (stereo not drawn) [Compound 65]	1200	2300		4.13	270
CC(C)=CC(CC(C)(C)c1ccc(C)cc1)NCC1CCOCC1 (stereo not drawn) [Compound 57]			0.73	5.21	150
CC(CC(C)(C)c1ccc(F)cc1)N1CCC(O)CC1 (stereo not drawn) [Compound 25]	2.3	4000		3.11	10
CC(CC(C)(C)c1ccc(Cl)cc1)N1CCC(C)(O)CC1 (stereo not drawn) [Compound 22]	1	1700		3.85	7
COc1ccc(C(C)(C)CC(C=C(C)C)NCC2CCOCC2)cc1 (stereo not drawn) [Compound 74]			12.9	4.54	430
CC(C)=CC(CC(C)(C)c1ccc(Cl)cc1)N1CCC(c2ccc(S(C)(=O)=O)cc2)CC1 (stereo not drawn) [Compound 32]			6.9	6.37	32
CC(C)=CC(CC(C)(C)c1ccc(C)cc1)N1CCN(c2ccccc2)CC1 (stereo not drawn) [Compound 60]			1	6.91	210
CC(C)=CC(CC(C)(C)c1ccc(Cl)cc1)N1CCC(c2cccc(S(C)(=O)=O)c2)CC1 (stereo not drawn) [Compound 46]			4.8	6.37	86
CC(C)=CC(CC(C)(C)c1ccc(C)cc1)N[C@H](C)c1ccccc1 (stereo partly drawn) [Compound 80]			0.64	6.93	1300
CC(C)=CC(CCc1ccc(C)cc1)N1CCC(C2CCOCC2)CC1 (stereo not drawn) [Compound 64]	535	11000		3.52	268
CC(C)=CC(CC(C)(C)c1ccc(Cl)cc1)N1CCC(c2ccnc(N3CCOCC3)c2)CC1 (stereo not drawn) [Compound 67]			13	6.8	300
CC(CC(C)(C)c1ccc(C(F)(F)F)cc1)N1CCC(O)CC1 (stereo not drawn) [Compound 13]	1	2500		3.85	2.9
CC(C)=CC(COc1ccccc1)N1CCC(O)CC1 (stereo not drawn) [Compound 184]	220	62000		2.57	
CC(CC(C)(C)c1ccc(Cl)cc1)N1CCC(O)CC1 (stereo not drawn) [Compound 20]	1	1700		3.57	6.1
CC(C)=CC(CC(C)(C)c1ccc(C)cc1)NCC1CCCCC1 (stereo not drawn) [Compound 52]			4.8	6.9	110
CC(C)=CC(CC(C)(C)c1ccc(Cl)cc1)N1CCC(c2ccnc(N3CCCC3)c2)CC1 (stereo not drawn) [Compound 63]			1.5	7.42	240
CC(=O)N1CCN(C(C=C(C)C)CC(C)(C)c2ccc(F)cc2)CC1 (stereo not drawn) [Compound 81]	160	32000		3.87	2500
CC(C)=CC(CC(C)(C)c1ccc(F)cc1)N1CCC(CCOC2CCOC2)CC1 (stereo not drawn) [Compound 179]	430	4000		5.49	
CC(C)=CC(CC(C)(C)c1ccc(C(F)(F)F)cc1)N1CCC2(CC1)OCc1ccccc12 (stereo not drawn) [Compound 189]	37	5700		6.89	
CC(C)=CC(CC(C)(C)c1ccc(F)cc1)N1CCN(C(=O)OC(C)(C)C)CC1 (stereo not drawn) [Compound 47]	1910	14000		5.55	90
CC(CC(C)(C)c1ccc(Cl)cc1)N1CCC(CO)CC1 (stereo not drawn) [Compound 16]	0.8	840		4.03	4.5
CC(C)(CCN1CCC(C2CCOCC2)CC1)c1ccc(C(F)(F)F)cc1 [Compound 1]	0.7	740		5.16	0.2
CC(C)=CC(COc1ccc(Cl)cc1)N1CCC(O)CC1 (stereo not drawn) [Compound 186]	42	2300		3.18	
CC(C)=CC(CC(C)(C)c1ccc(Cl)cc1)N1CCC(c2ccncc2)CC1 (stereo not drawn) [Compound 24]			20	6.31	10
